According to patent publication US20230031406A1, “COMPOUNDS AND COMPOSITIONS FOR TREATING CONDITIONS ASSOCIATED WITH NLRP ACTIVITY” (Novartis AG, priority 2018, published 2023):
Where two headings read alike, the source gives them in different places. Values belong to the compound of their own block, whether it stands above or below them.

Test system: PMA-differentiated THP-1 cells
Assay: IL-1β production in PMA-differentiated THP-1 cells stimulated with gramicidin (hTHP-1 assay containing 2% fetal bovine serum; Procedures 1 and 2)
Assay type: cell-based, human
Details: 2% fetal bovine serum
Outline: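 Secreted IL-1β, read by HTRF, after gramicidin challenge (5 μM, 2 h) of THP-1 cells differentiated with PMA (20 ng/ml, 16-18 h) and plated at 50,000 cells/well in 2% FBS medium. Compounds, 0.0017-100 μM final with 0.37% DMSO, were added 1 h before stimulation.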

[1] = Table B4, class symbols, read-out: hTHP-1 IC50
[2] = Table B1, class symbols, read-out: Average IC50 of compounds in hTHP-1 assay: hTHP-1 IC50
[3] = Homo sapiens, THP-1, Table B3, hTHP-1 assay, numeric values, read-out: IC50
[4] = Table B2, class symbols, read-out: hTHP-1 IC50
[5] = Table B3, hTHP-1 assay, class symbols, read-out: IC50
[6] = Homo sapiens, THP-1, Table B1, class symbols, read-out: Average IC50 of compounds in hTHP-1 assay: hTHP-1 IC50
[7] = Homo sapiens, THP-1, Table B2, class symbols, read-out: hTHP-1 IC50

Structure (SMILES): CCn1cc(F)c(S(N)(=O)=NC(=O)Nc2c3c(nc(C(F)(F)F)c2C2CC2)CCC3)n1 (single isomer, unassigned) [Example 773, (R) or (S)-N′-((3-cyclopropyl-2-(trifluoromethyl)-6,7-dihydro-5H-cyclopenta[b]pyridin-4-yl)carbamoyl)-1-ethyl-4-fluoro-1H-pyrazole-3-sulfonimidamide]
IC50 [1]: 40 to 200 nM

Structure (SMILES): CC(C)n1nc(S(N)(=O)=NC(=O)Nc2c3c(nc4c2CC[C@H]4C)CCC3)cc1CO (single isomer, unassigned) [Example 644, (S) or (R)-5-(hydroxymethyl)-1-isopropyl-N′-(((R)-3-methyl-1,2,3,5,6,7-hexahydrodicyclopenta[b,e]pyridin-8-yl)carbamoyl)-1H-pyrazole-3-sulfonimidamide]
IC50 [3]: > 30000 nM

Structure (SMILES): CCn1cc(F)c(S(N)(=O)=NC(=O)Nc2c(C)c(C(F)(F)F)nc3c2CCC3)n1 (single isomer, unassigned) [Example 649, (R) or (S)-1-ethyl-4-fluoro-N′-((3-methyl-2-(trifluoromethyl)-6,7-dihydro-5H-cyclopenta[b]pyridin-4-yl)carbamoyl)-1H-pyrazole-3-sulfonimidamide]
IC50 [5]: 40 to 200 nM

Structure (SMILES): CCn1cc(F)c(S(N)(=O)=NC(=O)Nc2c3c(nc4c2CCC42CC2)CCC3)n1 (single isomer, unassigned) [Example 672, (S) or (R)-1-ethyl-4-fluoro-N′-((1′,5′,6′,7′-tetrahydro-2′H-spiro[cyclopropane-1,3'-dicyclopenta[b,e]pyridin]-8′-yl)carbamoyl)-1H-pyrazole-3-sulfonimidamide]
IC50 [5]: 1000 to 5000 nM

Structure (SMILES): CCn1cc(F)c(S(N)(=O)=NC(=O)Nc2c3c(nc4c2CC[C@@H]4C)CCC3)n1 (single isomer, unassigned) [Example 712, (S) or (R)-1-ethyl-4-fluoro-N′-(((S)-3-methyl-1,2,3,5,6,7-hexahydrodicyclopenta[b,e]pyridin-8-yl)carbamoyl)-1H-pyrazole-3-sulfonimidamide]
IC50 [5]: 5000 to 30000 nM

Structure (SMILES): CN(C)Cc1ccc(S(N)(=O)=NC(=O)Nc2c3c(nc4c2CCC4(C)C)CCC3)cc1 (single isomer, unassigned) [Compound 125b, (R) or (S)-N′-((3,3-dimethyl-1,2,3,5,6,7-hexahydro-dicyclopenta[b,e]pyridin-8-yl)carbamoyl)-4-((dimethylamino)meth-yl)benzene-sulfonimidamide]
IC50 [6]: 1000 to 5000 nM

Structure (SMILES): CC(C)(O)c1cc(F)c(S(N)(=O)=NC(=O)Nc2c3c(nc(C4CC4)c2C2CC2)CCC3)s1 (single isomer, unassigned) [Example 698, (S) or (R)-N′-((2,3-dicyclopropyl-6,7-dihydro-5H-cyclopenta[b]pyridin-4-yl)carbamoyl)-3-fluoro-5-(2-hydroxypropan-2-yl) thiophene-2-sulfonimidamide]
IC50 [5]: 1000 to 5000 nM

Structure (SMILES): CCc1c(C2CC2)nc2c(c1NC(=O)N=S(N)(=O)c1cnc(C(C)(C)O)s1)CCC2 (stereo not shown) [Compound 675, N′-((2-cyclopropyl-3-ethyl-6,7-dihydro-5H-cyclopenta[b]pyridin-4-yl)carbamoyl)-2-(2-hydroxypropan-2-yl)thiazole-5-sulfonimidamide]
IC50 [7]: 1000 to 5000 nM

Structure (SMILES): CCn1cc(F)c(S(N)(=O)=NC(=O)Nc2c(C)c(CC(F)(F)F)nc3c2CCC3)n1 (single isomer, unassigned) [Example 718, (S) or (R)-1-ethyl-4-fluoro-N′-((3-methyl-2-(2,2,2-trifluoroethyl)-6,7-dihydro-5H-cyclopenta[b]pyridin-4-yl)carbamoyl)-1H-pyrazole-3-sulfonimidamide]
IC50 [3]: > 30000 nM

Structure (SMILES): CCn1cc(F)c(S(N)(=O)=NC(=O)Nc2c3c(nc(C(F)(F)F)c2-c2ccc(F)cc2)CCC3)n1 (single isomer, unassigned) [Example 788, (S) or (R)-1-ethyl-4-fluoro-N′-((3-(4-fluorophenyl)-2-(trifluoromethyl)-6,7-dihydro-5H-cyclopenta[b]pyridin-4-yl)carbamoyl)-1H-pyrazole-3-sulfonimidamide]
IC50 [1]: 1000 to 5000 nM

Structure (SMILES): CC(C)n1ccc(S(N)(=O)=NC(=O)Nc2c3c(nc4c2CCC4)CCC3)n1 (single isomer, unassigned) [Compound 119b, (S) or (R)-N′-((1,2,3,5,6,7-hexahydrodicyclo-penta[b,e]pyridin-8-yl)carbamoyl)-1-isopropyl-1H-pyrazole-3-sulfonimidamide]
IC50 (Homo sapiens, THP-1, Table B1, numeric bounds, read-out: Average IC50 of compounds in hTHP-1 assay: hTHP-1 IC50): > 30000 nM

Structure (SMILES): CC(C)(O)c1cc(S(N)(=O)=NC(=O)Nc2c3c(nc4c2CCC4)CCC3)nn1-c1ccccc1 (stereo not shown) [Compound 159, N-((1,2,3,5,6,7-hexahydrodicyclopenta[b,e]pyridin-8-yl)carbamoyl)-5-(2-hydroxypropan-2-yl)-1-phenyl-1H-pyrazole-3-sulfonimidamide]
IC50 [6]: 1000 to 5000 nM

Structure (SMILES): Cc1c(C(F)(F)F)nc2c(c1NC(=O)N=S(N)(=O)c1nn(C(F)F)cc1F)CCC2 (stereo not shown) [Compound 717]
IC50 [7]: 200 to 1000 nM

Structure (SMILES): CC1(C)CCc2c1nc1c(c2NC(=O)N=S(N)(=O)c2sc(C(O)(CO)CO)nc2CO)CCC1 (single isomer, unassigned) [Example 777, (R) or (S)-N′-((3,3-dimethyl-1,2,3,5,6,7-hexahydrodicyclopenta[b,e]pyridin-8-yl)carbamoyl)-4-(hydroxymethyl)-2-(1,2,3-trihydroxypropan-2-yl)-thiazole-5-sulfonimidamide]
IC50 [1]: 200 to 1000 nM

Structure (SMILES): Cc1c(C(F)(F)F)nc2c(c1NC(=O)N=S(N)(=O)c1cnc(C(C)(C)O)s1)CCC2 (stereo not shown) [Compound 661, 2-(2-Hydroxypropan-2-yl)-N′-((3-methyl-2-(trifluoromethyl)-6,7-dihydro-5H-cyclopenta[b]pyridin-4-yl)carbamoyl)thiazole-5-sulfonimidamide]
IC50 [7]: 1000 to 5000 nM

Structure (SMILES): NS(=O)(=NC(=O)Nc1c2c(nc3c1CCC31CC1)CCC2)c1nn(C(F)F)cc1F (single isomer, unassigned) [Example 681, (R) or (S)-1-(difluoromethyl)-4-fluoro-N′-((1′,5′,6′,7′-tetrahydro-2′H-spiro[cyclopropane-1,3′-dicyclopenta[b,e]pyridin]-8′-yl)carbamoyl)-1H-pyrazole-3-sulfonimidamide]
IC50 [5]: 40 to 200 nM

Structure (SMILES): CC(C)(O)c1sc(S(N)(=O)=NC(=O)Nc2c3c(nc4c2CCC4)CCC3)cc1F (stereo not shown) [Compound 177, 4-fluoro-N′-((1,2,3,5,6,7-hexahydrodicyclopenta[b,e]pyridin-8-yl)carbamoyl)-5-(2-hydroxypropan-2-yl)thiophene-2-sulfonimidamide]
IC50 [6]: 5000 to 30000 nM

Results, then the compound that gave them:

IC50 [2]: 200 to 1000 nM
Structure (SMILES): C[C@H]1CCc2c1nc1c(c2NC(=O)N=[S@@](N)(=O)c2cnc(C(C)(C)O)s2)CCC1 [Compound 162ba, (R,S)-2-(2-hydroxypropan-2-yl)-N′-((3-methyl-1,2,3,5,6,7-hexahydrodicyclo-penta[b,e]pyridin-8-yl)carbamoyl)thiazole-5-sulfonimidamide]

IC50 [4]: 1000 to 5000 nM
Structure (SMILES): CC(C)(O)c1cc(Cl)c(S(N)(=O)=NC(=O)Nc2c3c(nc4c2CCC4)CCC3)s1 (single isomer, unassigned) [Compound 691b, (R) or (S)-3-Chloro-N′-((1,2,3,5,6,7-hexahydrodicyclopenta [b,e]pyridin-8-yl)carbamoyl)-5-(2-hydroxypropan-2-yl)thiophene-2-sulfonimidamide]

IC50 (Homo sapiens, THP-1, Table B2, numeric bounds, read-out: hTHP-1 IC50): > 30000 nM
Structure (SMILES): CC1CCc2c1nc1c(c2NC(=O)N=S(N)(=O)c2cnn(C(C)C)c2)CCC1 (single isomer, unassigned) [Compound 171a, (S, R) and (S, S) or (R, S) and (R, R)-1-Isopropyl-N′-((3-methyl-1,2,3,5,6,7-hexahydrodicyclopenta [b,e]pyridin-8-yl)carbamoyl)-1H-pyrazole-4-sulfonimidamide]

IC50 [6]: 5000 to 30000 nM
Structure (SMILES): CC(C)c1ncc(F)c(C(C)C)c1NC(=O)N=S(N)(=O)c1ccc(CN(C)C)cc1 (single isomer, unassigned) [Compound 132a, (R) or (S)-4-((dimethyl-amino)methyl)-N′-((5-fluoro-2,4-diisopropylpyridin-3-yl)carbamoyl)benzene-sulfonimidamide]

IC50 [2]: 200 to 1000 nM
Structure (SMILES): CC(C)(O)c1cnc(S(N)(=O)=NC(=O)Nc2c3c(nc4c2CCC4)CCC3)s1 (single isomer, unassigned) [Compound 167b, (R) or (S)-N′-((1,2,3,5,6,7-hexahydrodicyclo-penta[b,e]pyridin-8-yl)carbamoyl)-5-(2-hydroxypropan-2-yl)thiazole-2-sulfonimidamide]

IC50 [7]: 200 to 1000 nM
Structure (SMILES): C[C@@](O)(CO)c1cc(F)c(S(N)(=O)=NC(=O)Nc2c3c(nc4c2CCC42CC2)CCC3)s1 (stereo partly shown) [Compound 716b]

IC50 [4]: 5000 to 30000 nM
Structure (SMILES): CC(C)(O)c1cncc(S(N)(=O)=NC(=O)Nc2c3c(nc4c2CCC4(C)C)CCC3)c1 (single isomer, unassigned) [Compound 684b, (S) or (R)-N′-((3,3-dimethyl-1,2,3,5,6,7-hexahydrodicyclopenta [b,e]pyridin-8-yl)carbamoyl)-5-(2-hydroxypropan-2-yl)pyridine-3-sulfonimidamide]

IC50 [4]: 5000 to 30000 nM
Structure (SMILES): Cc1c(C(C)C)nc2c(c1NC(=O)N=S(N)(=O)c1sc(C(C)(C)O)cc1F)CCC2 (single isomer, unassigned) [Compound 645b, (S) or (R)-3-Fluoro-5-(2-hydroxypropan-2-yl)-N′-((2-isopropyl-3-methyl-6,7-dihydro-5H-cyclopenta[b]pyridin-4-yl)carbamoyl) thiophene-2-sulfonimidamide]
